# Experimental data reported in patent US10519162B2, “6,7-dihydropyrazolo[1,5-α]pyrazin-4(5H)-one compounds and their use as negative allosteric modulators of mGluR2 receptors” (Janssen Pharmaceutica NV, priority 2014, dated 2019).
# Tests used:
# [1] = target: T1, human mGlu2 receptor (Homo sapiens, UniProt Q14416); assay: [35S]GTPγS binding assay (mGluR2 negative allosteric modulation, glutamate ~EC80 60 μM); format: biochemical; conditions: for GTPγS-hmGluR2 anGT Emax / Emax: maximal % inhibition relative to the control glutamate response (EC80 glutamate); for IC50: membranes from CHO cells transfected with human mGlu2 receptor, glutamate ~EC80 (60 μM), pIC50 = −log IC50 (M), read-out: GTPγS-hmGluR2 anGT pIC50 (converted); for Emax: read-out: GTPγS-hmGluR2 anGT Emax
# T1 construct: expressed in transfected cells; host or cells: CHO cells
# T1 sequence (Q14416 19-872): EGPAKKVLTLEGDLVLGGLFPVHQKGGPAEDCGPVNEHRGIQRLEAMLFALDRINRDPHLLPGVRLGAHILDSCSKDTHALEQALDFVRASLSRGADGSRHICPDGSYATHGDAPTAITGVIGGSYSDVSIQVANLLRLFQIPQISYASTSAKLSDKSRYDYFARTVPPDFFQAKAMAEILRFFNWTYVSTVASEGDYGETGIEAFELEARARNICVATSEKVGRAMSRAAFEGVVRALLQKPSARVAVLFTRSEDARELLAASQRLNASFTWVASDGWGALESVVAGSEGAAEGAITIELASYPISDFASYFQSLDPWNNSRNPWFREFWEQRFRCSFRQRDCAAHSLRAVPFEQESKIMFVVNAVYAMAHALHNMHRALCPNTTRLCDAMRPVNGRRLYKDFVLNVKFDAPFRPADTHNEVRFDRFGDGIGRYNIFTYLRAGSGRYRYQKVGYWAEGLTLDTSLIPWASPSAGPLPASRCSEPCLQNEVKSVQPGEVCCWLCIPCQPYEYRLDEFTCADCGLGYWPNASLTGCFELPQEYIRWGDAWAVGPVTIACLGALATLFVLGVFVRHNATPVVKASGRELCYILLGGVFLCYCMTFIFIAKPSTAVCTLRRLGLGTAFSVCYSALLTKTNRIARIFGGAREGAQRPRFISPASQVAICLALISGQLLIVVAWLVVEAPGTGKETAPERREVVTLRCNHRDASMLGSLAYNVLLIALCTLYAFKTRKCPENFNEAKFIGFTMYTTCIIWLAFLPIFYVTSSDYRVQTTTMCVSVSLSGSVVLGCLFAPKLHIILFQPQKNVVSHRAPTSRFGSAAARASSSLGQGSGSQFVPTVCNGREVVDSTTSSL
# Experimental: 1) [^35S]GTPγS Binding Assay
# [^35S]GTPγS Binding Assay
# Total reaction volume was 200 μl. […] Membrane-bound radioactivity was counted in a Topcount.
Structure (SMILES),melting point,GTPγS-hmGluR2 anGT Emax [1],IC50 [1],Emax [1]
"COCC1CN(c2ccc(C(F)(F)F)cc2)C(=O)c2c(NC(=O)c3ccccc3F)cnn21 (single isomer, unassigned) [Co. No. 62b]",162.51 °C,66%,4.79e-06 M,
COc1ccc(F)cc1C(=O)Nc1cnn2c1C(=O)N(c1ccc(C(F)(F)F)cc1)C[C@@H]2C [Co. No. 10],204.35 °C,,2.57e-09 M,113%
COc1c(F)cccc1C(=O)Nc1cnn2c1C(=O)N(c1ccc(C(F)(F)F)cc1)C[C@@H]2C [Co. No. 19],170.98 °C,,4.37e-09 M,117%
COc1cccc(C(=O)Nc2cnn3c2C(=O)N(c2ccc(C(F)(F)F)cc2)C[C@@H]3C)n1 [Co. No. 21],199.24 °C,,4.68e-09 M,106%
C[C@H]1CN(c2ccc(C(F)(F)F)cc2)C(=O)c2c(NC(=O)c3ccccn3)cnn21 [Co. No. 24],,,5.89e-09 M,102%
COc1ccc(C(=O)Nc2cnn3c2C(=O)N(c2ccc(C(F)(F)F)cc2)C[C@@H]3C)cc1 [Co. No. 25],164.82 °C,,6.17e-09 M,104%
COc1ccc(F)c(C(=O)Nc2cnn3c2C(=O)N(c2ccc(C(F)(F)F)cc2)C[C@@H]3C)c1 [Co. No. 37],185.41 °C,,9.12e-09 M,116%
COc1cccc(F)c1C(=O)Nc1cnn2c1C(=O)N(c1ccc(C(F)(F)F)cc1)C[C@@H]2C [Co. No. 41],,,1.05e-08 M,109%
COc1ncccc1C(=O)Nc1cnn2c1C(=O)N(c1ccc(C(F)(F)F)cc1)C[C@@H]2C [Co. No. 43],213.83 °C,,1.12e-08 M,114%
COc1ccc(C(=O)Nc2cnn3c2C(=O)N(c2ccc(C(F)(F)F)cc2)C[C@@H]3C)c(F)c1 [Co. No. 44],214.58 °C,,1.12e-08 M,115%
C[C@H]1CN(c2ccc(C(F)(F)F)cc2)C(=O)c2c(NC(=O)c3ccno3)cnn21 [Co. No. 69],,,2.95e-08 M,103%
C[C@H]1CN(c2ccc(C(F)(F)F)cc2)C(=O)c2c(NC(=O)c3ccc(O)nn3)cnn21 [Co. No. 92],,,1.26e-06 M,101%
C[C@H]1CN(c2ccc(C(F)(F)F)cc2)C(=O)c2c(NC(=O)c3ncccn3)cnn21 [Co. No. 98],,,1.51e-07 M,106%
Cc1cncc(C(=O)Nc2cnn3c2C(=O)N(c2ccc(Cl)cc2)C[C@@H]3C)c1 [Co. No. 131],,,1.66e-08 M,107%
Cc1cc(C(=O)Nc2cnn3c2C(=O)N(c2ccc(Cl)cc2)C[C@@H]3C)cc(C)n1 [Co. No. 132],,,8.71e-09 M,112%
Cc1nccc(C(=O)Nc2cnn3c2C(=O)N(c2ccc(C(F)(F)F)cc2)C[C@@H]3C)c1C [Co. No. 154],,,6.03e-08 M,105%
"Cc1cnc(NC(C)(C)C)c(C(=O)Nc2cnn3c2C(=O)N(c2ccc(C(F)(F)F)c(Cl)c2)C[C@@H]3C)c1 [Co. No. 167, 2-(tert-Butylamino)-N-[(7S)-5-[3-chloro-4-(trifluoromethyl)phenyl]-7-methyl-4-oxo-6,7-dihydropyrazolo[1,5-a]pyrazin-3-yl]-5-methyl-pyridine-3-carboxamide]",,,2.82e-07 M,103%
"C[C@H]1CN(c2ccc(Cl)c(Cl)c2)C(=O)c2c(NC(=O)C(F)(F)F)cnn21 [Co. No. 173, N-[(7S)-5-(3,4-Dichlorophenyl)-7-methyl-4-oxo-6,7-dihydropyrazolo[1,5-a]pyrazin-3-yl]-2,2,2-trifluoro-acetamide]",,,2.29e-08 M,104%
Cc1cc(N2C[C@H](C)n3ncc(NC(=O)c4cccnc4N)c3C2=O)ccc1Cl [Co. No. 208],174.32 °C,,,

# Second part, the compound after the results:
melting point,GTPγS-hmGluR2 anGT Emax [1],IC50 [1],Emax [1],Structure (SMILES)
157.37 °C,,,,Cc1cc(C(=O)Nc2cnn3c2C(=O)N(c2ccc(C(F)(F)F)cc2)C[C@@H]3C)cc(CF)n1 (racemic) [Co. No. 209]
225.83 °C,,1.45e-06 M,95%,"COCC1CN(c2ccc(C(F)(F)F)cc2)C(=O)c2c(NC(=O)c3ccc(N)nc3)cnn21 (single isomer, unassigned) [Co. No. 96]"
,,2.4e-09 M,107%,"C[C@H]1CN(c2ccc(C(F)(F)F)c(CF)c2)C(=O)c2c(NC(=O)c3ccc(N)nc3)cnn21 [Co. No. 5, 6-Amino-N-[(7S)-5-[3-(fluoromethyl)-4-(trifluoromethyl)phenyl]-7-methyl-4-oxo-6,7-dihydropyrazolo[1,5-a]pyrazin-3-yl]pyridine-3-carboxamide]"
154.53 °C,,2.29e-09 M,108%,Cc1cc(N2C[C@H](C)n3ncc(NC(=O)c4ccccc4)c3C2=O)ccc1C(F)(F)F [Co. No. 7]
147.4 °C,,2.45e-09 M,106%,Cc1cccc(C(=O)Nc2cnn3c2C(=O)N(c2ccc(C(F)(F)F)cc2)C[C@@H]3C)c1 [Co. No. 9]
136.53 °C,,3.72e-09 M,114%,COc1cc(F)cc(C(=O)Nc2cnn3c2C(=O)N(c2ccc(C(F)(F)F)cc2)C[C@@H]3C)c1 [Co. No. 17]
152.43 °C,,5.5e-09 M,105%,COc1ccc(C(=O)Nc2cnn3c2C(=O)N(c2ccc(C(F)(F)F)cc2)C[C@@H]3C)cc1F [Co. No. 23]
185.29 °C,,7.24e-09 M,114%,C[C@H]1CN(c2ccc(C(F)(F)F)cc2)C(=O)c2c(NC(=O)c3cncc(F)c3)cnn21 [Co. No. 31]
250.03 °C,,7.59e-09 M,117%,COc1nc(N2C[C@H](C)n3ncc(NC(=O)c4ccc(N)nc4)c3C2=O)ccc1C(F)(F)F [Co. No. 33]
133.34 °C,113%,,,C[C@H]1CN(c2ccc(C(F)F)c(Cl)c2)C(=O)c2c(NC(=O)c3ccc(N)nc3)cnn21 [Co. No. 40]
127.02 °C,,1.1e-08 M,105%,COc1ccc(C(=O)Nc2cnn3c2C(=O)N(c2ccc(C(F)(F)F)cc2)C[C@@H]3C)cn1 [Co. No. 42]
237.65 °C,,1.26e-08 M,104%,C[C@H]1CN(c2ccc(C(F)(F)F)cc2)C(=O)c2c(NC(=O)c3ccc(Cl)cn3)cnn21 [Co. No. 46]
128.68 °C,,1.29e-08 M,101%,COc1cc(C(=O)Nc2cnn3c2C(=O)N(c2ccc(C(F)(F)F)cc2)C[C@@H]3C)ccn1 [Co. No. 47]
221.22 °C,,1.32e-08 M,108%,C[C@H]1CN(c2ccc(C(F)(F)F)cc2)C(=O)c2c(NC(=O)c3ccc(F)cn3)cnn21 [Co. No. 48]
119.36 °C,,1.32e-08 M,101%,C[C@H]1CN(c2ccc(C(F)(F)F)cc2)C(=O)c2c(NC(=O)c3ccc(F)cc3)cnn21 [Co. No. 49]
225.63 °C,,1.38e-08 M,104%,C[C@H]1CN(c2ccc(C(F)(F)F)cc2)C(=O)c2c(NC(=O)c3ccnc(N)c3)cnn21 [Co. No. 50]
,,2.69e-08 M,111%,COc1nc(N2C[C@H](C)n3ncc(NC(=O)c4ccc(N)nc4)c3C2=O)ccc1Cl [Co. No. 65]
,,2.82e-08 M,102%,C[C@H]1CN(c2ccc(C(F)(F)F)cc2)C(=O)c2c(NC(=O)c3ncccc3F)cnn21 [Co. No. 67]
,,1.38e-07 M,109%,"C[C@H]1CN(c2ccc(C(F)(F)F)cc2)C(=O)c2c(NC(=O)c3cc(N)[nH]n3)cnn21 [Co. No. 84, 5-Amino-N-[(7S)-7-methyl-4-oxo-5-[4-(trifluoromethyl)phenyl]-6,7-dihydropyrazolo[1,5-a]pyrazin-3-yl]-1H-pyrazole-3-carboxamide]"
,,2.88e-07 M,97%,C[C@H]1CN(c2ccc(C(F)(F)F)cc2)C(=O)c2c(NC(=O)c3ccc(N)nn3)cnn21 [Co. No. 90]
230.27 °C,,,,COCC1CN(c2ccc(C(F)(F)F)c(Cl)c2)C(=O)c2c(NC(=O)c3ccc(N)nc3)cnn21 (stereo not shown) [Co. No. 140]
230.4 °C,,,,COCC1CN(c2ccc(C(F)(F)F)c(Cl)c2)C(=O)c2c(NC(=O)c3ccc(N)nc3)cnn21 (stereo not shown) [Co. No. 141]
,,5.5e-09 M,104%,Cc1nccc(C(=O)Nc2cnn3c2C(=O)N(c2ccc(C(F)(F)F)c(Cl)c2)C[C@@H]3C)c1C [Co. No. 155]
,,1.86e-08 M,106%,Cc1cc(C(=O)Nc2cnn3c2C(=O)N(c2ccc(C(F)(F)F)cc2)C[C@@H]3C)c(C)cn1 [Co. No. 157]
238.83 °C,,,,C[C@H]1CN(c2ccc(C(F)(F)F)c(CO)c2)C(=O)c2c(NC(=O)c3ccc(N)nc3)cnn21 [Co. No. 165]
,,2.88e-08 M,105%,"Cc1cc(C(=O)Nc2cnn3c2C(=O)N(c2ccc(C(F)(F)F)c(Cl)c2)C[C@@H]3C)cnc1NC(C)(C)C [Co. No. 168, 6-(tert-butylamino)-N-[(7S)-5-[3-chloro-4-(trifluoromethyl)phenyl]-7-methyl-4-oxo-6,7-dihydropyrazolo[1,5-a]pyrazin-3-yl]-5-methyl-pyridine-3-carboxamide]"
,,5.89e-10 M,108%,"Cc1cc(C(=O)Nc2cnn3c2C(=O)N(c2ccc(C(F)(F)F)c(Cl)c2)C[C@@H]3C)cnc1N [Co. No. 169, 6-Amino-N-[(7S)-5-[3-chloro-4-(trifluoromethyl)phenyl]-7-methyl-4-oxo-6,7-dihydropyrazolo[1,5-a]pyrazin-3-yl]-5-methyl-pyridine-3-carboxamide]"
172.9 °C,,,,Cc1cnc(N)c(C(=O)Nc2cnn3c2C(=O)N(c2ccc(SC(F)(F)F)cc2)C[C@@H]3C)c1 [Co. No. 207]
